Source: patent US20230339915A1 (Vertex Pharmaceuticals Incorporated, priority 2020, published 2023)
pEC50, pIC50: −log10 of the molar value.

Assays:
[1] = biological target: purified Z-AAT protein from human plasma (Homo sapiens (Human), UniProt P01009, E366K); experiment: Biochemical Assay (Z-AAT Elastase Activity Assay); conditions: purified Z-AAT pre-incubated with compound 1 hour, then human neutrophil elastase and fluorescent substrate
Source text: B. Biochemical Assay (Z-AAT Elastase Activity Assay)
This assay measured the modulation of Compounds 1-227 on Z-AAT SERpIN activity using purified Z-AAT protein and purified human neutrophil elastase (hNE). Normally, when active monomeric Z-AAT encounters a protease such as trypsin or elastase, it forms a 1:1 covalent “suicide” complex in which both the AAT and protease are irreversibly inactivated. However, compounds binding to Z-AAT can lead to a decrease in SERpIN activity. In such cases, when a protease encounters compound-bound Z-AAT, the protease cleaves and inactivates Z-AAT without itself being inactivated.
Reagents • PBS buffer (media prep)+0.01% BRIJ35 detergent (Calbiochem catalog #203728) Opti-MEM media (Fisher 11058-021) • Human neutrophil elastase (hNE, Athens Research #16-14-051200) • 3.4 μM stock (0.1 mg/mL) prepared in 50 mM Na Acetate, pH 5.5, 150 mM NaCl, stored at −80° C. • Elastase substrate V (ES V, fluorescent peptide substrate MeOSuc-Ala-Ala-Pro-Val-AMC, Calbiochem catalog #324740) • 20 mM stock in DMSO, stored at −20° C. • Purified Z-AAT protein from human plasma; • 12.9 μM (0.67 mg/mL) Z-AAT Vertex Cambridge Sample 4942, from patient • #061-SSN, stored at −80 C
Plates • Corning 4511 (384 well black low volume)
Instruments • PerkinElmer® EnVision™
Pre-Incubation of Z-AAT with Compounds • 1. 7.5 μL of Z-AAT (20 nM) was incubated with compounds 1-227 in a GCA plate for 1 hour at room temperature
Addition of hNE • 1. 7.5 ul of HNE solution (3 nM in PBS+0.01% BRIJ35) added into GCA plate • 2. Incubate plate for 30 minutes to allow Z-AAT/HNE suicide complex formation.
Addition of Substrate and Read Plate on PE Envision • 1. 7.5 μL of substrate (300 μM solution of elastase substrate (ES V) in PBS+0.01% BRIJ35) dispensed per well into GCA plate • 2. Immediately read on Envision.

[2] = biological target: NL20 human bronchial epithelial cells expressing human Z-AAT (Homo sapiens (Human), UniProt P01009, E366K); experiment: AAT Function Assay (MSD Assay NL20-SI Cell Line); assay type: cell-based; conditions: functionally active AAT (AAT-hNE complex, MSD) in supernatant of NL20 cells expressing human Z-AAT; read-out: NL20 Functional EC50
NL20 human bronchial epithelial cells expressing human Z-AAT, sequence (P01009 25-418 E366K limits assumed): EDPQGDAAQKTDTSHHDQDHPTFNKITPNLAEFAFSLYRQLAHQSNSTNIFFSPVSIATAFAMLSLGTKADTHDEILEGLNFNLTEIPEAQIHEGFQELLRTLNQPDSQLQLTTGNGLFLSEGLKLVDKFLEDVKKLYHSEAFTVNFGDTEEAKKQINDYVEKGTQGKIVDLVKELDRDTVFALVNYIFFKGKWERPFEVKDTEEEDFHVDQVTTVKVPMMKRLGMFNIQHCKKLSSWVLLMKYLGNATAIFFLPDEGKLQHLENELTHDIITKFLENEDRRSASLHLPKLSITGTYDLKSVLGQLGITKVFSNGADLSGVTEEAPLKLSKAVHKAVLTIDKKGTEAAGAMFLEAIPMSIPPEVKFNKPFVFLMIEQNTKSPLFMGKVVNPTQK
Procedure: A. AAT Function Assay (MSD Assay NL20-SI Cell Line)
Alpha-1 antitrypsin (AAT) is a SERpIN (serine protease inhibitor) that inactivates enzymes by binding to them covalently. This assay measured the amount of functionally active AAT in a sample in the presence of the disclosed Compounds 1-227 by determining the ability of AAT to form an irreversible complex with human neutrophil Elastase (hNE). In practice, the sample (cell supernatant, blood sample, or other) was incubated with excess hNE to allow AAT-Elastase complex to be formed with all functional AAT in the sample. This complex was then captured to a microplate coated with an anti-AAT antibody. The complex captured to the plate was detected with a labeled anti-Elastase antibody and quantitated using a set of AAT standards spanning the concentration range present in the sample. Meso Scale Discovery (MSD) plate reader, Sulfo-tag labeling, and microplates were used to provide high sensitivity and wide dynamic range.
Instrument(S): • Meso Sector S600 • Bravo • Washer dispenser • Multidrop Combi
Day 1 Cell Culture • 1. Harvest NL20 human bronchial epithelial cells expressing human Z-AAT in OptiMEM™ containing Pen/Strep (P/S) • 2. Seed at 16,000 cells/well in 30 μL (384 well plate) • 3. Centrifuge plates briefly up to speed (1200 rpm) and place into 37° C. incubator overnight
Day 2: Compound Addition and Coating Plates with Capture Antibody
Compound Addition: • 1. Dispense 40 μL of OptiMEM™ (P/S) with doxycycline (1:1000 stock=0.1 μM final) to each well of the compound plate using a multidrop Combi in hood • 2. Remove cell plate from incubator, flip/blot and take immediately to Bravo to transfer compounds • 3. Return plates to incubator overnight
Coat MSD Plates • 1. Dilute capture antibody (Polyclonal Goat anti-AAT) to 5 μg/mL (1:200) in PBS (no BSA). • 2. Dispense 25 μL of diluted capture antibody into all wells of MSD 384-well High Bind plate using the Multidrop equipped with a standard cassette. • 3. Incubate overnight at 4° C.
Prepare Blocker A (BSA) Solutions • 1. Prepare solution of 5% MSD Blocker A (BSA) following the manufacturer's instructions. • 2. Further dilute the 5% MSD Blocker A in PBS to 1% (Blocker A) as needed.
Block Plates • 1. Wash plate 1× with 50 μL Wash buffer (PBS+0.5% Tween 20), and adds 35 μL 5% Block A buffer to block non-specific binding on washer dispenser • 2. Rotate plates on shaker for 1 hour at 600 rpm
Prepare M-AA T Standards • 1. Dilute M-AAT stock to 1.6 μg/mL in 1% BSA Blocker A (Stock in −70° C.); then prepare 12×1:2 serial dilutions in 1% Blocker A • 2. The top starting final concentration on MSD plate is 320 ng/mL. These dilutions correspond to a final concentration of 320, 160, 80, 40, 20, 10, 5, 2.5, 1.25, 0.625, 0.312, 0.156 ng/mL.
Dilution Plate • 1. Add 80 μL of 1% Assay buffer to all wells except columns 1/24 (standards) with Multidrop Combi • 2. Add diluted standards to columns 1 and 24 • 3. Centrifuge dilution plates 1200 rpm briefly
Cell Plate • 1. Aspirate columns which will have the standards from the cell plates in the hood using 16-pin aspirator
Prepare Human Neutrophil Elastase (hNE) • 1. Prepare 1 μg/mL Human Neutrophil Elastase by diluting in 1% Blocker A. • a. Small 100 μg vial—add 1 mL PBS (100 μg/mL) • i. This can then be diluted 1:100 in 1% Assay Buffer for a final 1 μg/mL concentration
MSD—add hNE (20 μL/well) • 1. After the MSD plate has blocked for at least 1 hour, wash plate 1× with 50 μL Wash buffer (PBS+0.5% Tween 20) and then add 20 μL hNE to each well
Bravo—Cell Plate—Dilution Plate—MSD Plate
Using the Bravo aspirate 10 μL from the cell plate, transfer to the dilution plate (9-fold dilution) • 1. Mix 25 μL 3×, then aspirate 5 μL, transfer to MSD plate (5-fold dilution) • 2. Mix 10 μL 3×. Total dilution is 45 fold. • 3. Shake plates at 600 rpm for 1.5 hours
Add Functional Detection hNE Antibody • 1. Wash plate 1× with wash buffer • 2. […]

purified Z-AAT protein from human plasma, sequence (P01009 25-418 E366K limits assumed): as above

pIC50 [1]	pEC50 [2]	SMILES
< 4.52	< 5.70	Cc1cc(-n2c(C3CCS(=O)(=O)CC3)c(C[C@H]3CC[C@H](C(=O)O)CC3)c3cc(O)ccc32)ccc1F [Compound 44]
< 4.52	< 5.70	O=C(O)[C@H]1C[C@H](c2c(C3CCOCC3)n(-c3ccc(F)cc3)c3ccc(O)cc32)C1 [Compound 45]
< 4.52	< 5.70	O=C(O)[C@H]1C[C@@H](c2c(C3CCOCC3)n(-c3ccc(F)cc3)c3ccc(O)cc32)C1 [Compound 46]
< 4.52	< 5.70	Cc1cc(-n2c(C3CCS(=O)(=O)CC3)c(C3CC4(CC(C(=O)O)C4)C3)c3cc(O)ccc32)ccc1F (stereo not drawn) [Compound 47]
< 4.52	< 5.70	C[C@]1(C(=O)O)C[C@H](c2c(C3CCOCC3)n(-c3ccc(F)cc3)c3ccc(O)cc32)C1 [Compound 48]
< 4.52	< 5.70	C[C@]1(C(=O)O)C[C@@H](c2c(C3CCOCC3)n(-c3ccc(F)cc3)c3ccc(O)cc32)C1 [Compound 49]
< 4.52	5.70 to 6.30	O=C(O)[C@H]1CC2(C1)C[C@H](c1c(C3CCOCC3)n(-c3ccc(F)cc3)c3ccc(O)cc31)C2 (stereo partly drawn) [Compound 50]
< 4.52	5.70 to 6.30	O=C(O)[C@H]1CC2(C1)C[C@H](c1c(C3CCOCC3)n(-c3ccc(F)cc3)c3ccc(O)cc31)C2 (stereo partly drawn) [Compound 51]
< 4.52	< 5.70	C[C@]1(C(=O)O)C[C@@H](c2c(C3CCOCC3)n(-c3ccccc3)c3ccc(O)cc32)C1 [Compound 52]
< 4.52	< 5.70	O=C(O)[C@]1(C(F)(F)F)C[C@@H](c2c(C3CCOCC3)n(-c3ccc(F)c(F)c3)c3ccc(O)cc32)C1 [Compound 53]
< 4.52	< 5.70	O=C(O)C1CC2(C1)CC(c1c(C3CCOCC3)n(-c3ccccc3)c3ccc(O)cc13)C2 (stereo not drawn) [Compound 54]
< 4.52	< 5.70	Cc1cc(-n2c(C3CCOCC3)c([C@H]3CC[C@@H](C(=O)O)CC3)c3cc(O)ccc32)ccc1F [Compound 55]
< 4.52	5.70 to 6.30	Cc1cc(-n2c(C3CCOCC3)c([C@H]3CC[C@H](C(=O)O)CC3)c3cc(O)ccc32)ccc1F [Compound 56]
> 5.70	> 6.30	CC(C)c1c([C@H]2CC3(C[C@H](C(=O)O)C3)C2)c2cc(O)ccc2n1-c1ccc(F)c(F)c1 (stereo partly drawn) [Compound 57]
5.30 to 5.70	5.70 to 6.30	CC(C)c1c([C@H]2CC3(C[C@H](C(=O)O)C3)C2)c2cc(O)ccc2n1-c1ccc(F)c(F)c1 (stereo partly drawn) [Compound 58]
< 5.30	< 5.70	Cc1cc(-n2c(C(C)C)c(CCC(F)(F)C(=O)O)c3cc(O)ccc32)ccc1F [Compound 59]
< 5.30	> 6.30	Cc1cc(-n2c(C(C)C)c([C@H]3C[C@@](C(=O)O)(C(F)(F)F)C3)c3cc(O)ccc32)ccc1F [Compound 60]
< 5.30	5.70 to 6.30	Cc1cc(-n2c(C(C)C)c([C@H]3C[C@](C(=O)O)(C(F)(F)F)C3)c3cc(O)ccc32)ccc1F [Compound 61]
< 4.52	5.70 to 6.30	Cc1cc(-n2c(C(C)C)c(CCC(C)(C)C(=O)O)c3cc(O)ccc32)ccc1F [Compound 62]
< 5.30	5.70 to 6.30	Cc1cc(-n2c(C(C)C)c([C@H]3C[C@@H](CC(=O)O)C3)c3cc(O)ccc32)ccc1F [Compound 63]
< 4.52	< 5.70	Cc1cc(-n2c(C(C)C)c(C3CCOC(C(=O)O)C3)c3cc(O)ccc32)ccc1F (stereo not drawn) [Compound 64]
< 4.52	< 5.70	Cc1cc(-n2c(C(C)C)c(C3CCOC(C(=O)O)C3)c3cc(O)ccc32)ccc1F (stereo not drawn) [Compound 65]
< 4.52	5.70 to 6.30	CO[C@]1(C(=O)O)C[C@H](c2c(C(C)C)n(-c3ccc(F)c(C)c3)c3ccc(O)cc32)C1 [Compound 66]
< 4.52	< 5.70	CO[C@]1(C(=O)O)C[C@@H](c2c(C(C)C)n(-c3ccc(F)c(C)c3)c3ccc(O)cc32)C1 [Compound 67]
